The values that follow come from patent US7560482B2, “Inhibitors of plasmepsins” (The Johns Hopkins University, priority 2001, dated 2009).

Like-named read-outs stand apart in the source and are kept apart here.

Broadly, the Ki is the dissociation constant of the complex between target and ligand, obtained from inhibition or displacement. One may read the IC50 as the concentration that inhibits the measured activity by half.

Test [1] concerns the target T1, plasmepsin II from Plasmodium falciparum (Plm II) (Plasmodium falciparum, UniProt P46925).
T1 construct: made in house; host or cells: Escherichia coli
As to the kind of experiment: Plasmepsin II inhibition assay, hydrolysis of chromogenic substrate. Conditions: for Discrimination Factor: Fold Selectivity for Plasmepsin II over Cathepsin D: ratio of the Ki for Cathepsin D to the Ki for Plasmepsin II. It is filed as biochemical. The procedure:
FIG. 7A-C. Inhibition of Plasmepsin II from Plasmodium falciparum by KNI-10033, KNI-10030 and KNI-10006 at 20° C. in 10 mM sodium citrate, 100 mM NaCl, 2% DMSO, pH 4.0. The inhibition constants are 3 nM, 11 nM and 0.5 rLM respectively.
(§1) The specific activity of plasmepsin II from Plasmodium falciparum (Plm II) cloned in and purified from Escherchia coli and commercially available human Cathepsin D were measured by following the hydrolysis of the chromogenic substrate Ala-Leu-Glu-Arg-Thr-nPhe-Phe-Ser-Phe-Pro-Thr-OH (California Peptide Research Inc., Napa, Calif.). The decrease in absorbance upon hydrolysis is monitored at 300 nm. Typical Plasmepsin II preparations hydrolyze chromogenic substrate at 4-5 s^−1 at 37° C. The inhibition assays were performed at 25° C. in 10 mM sodium formate, 2% DMSO, pH 4.0. These pH conditions mimic the conditions in the food vacuole of the parasite. […] Inhibition constants (Ki) for the inhibitors are obtained at the desired temperature and solvent conditions by measuring the rate of substrate hydrolysis at increasing amounts of inhibitors. Exemplary results from three compounds (KNI-10033, KNI-10030 and KNI-10006) are shown in FIG. 7A-C, and the results obtained with all KNI compounds tested are given in Table 1.

The target of a further test is T2, human Cathepsin D (Homo sapiens, UniProt P07339).
T2 construct: purchased
T2 sequence (P07339 65-412): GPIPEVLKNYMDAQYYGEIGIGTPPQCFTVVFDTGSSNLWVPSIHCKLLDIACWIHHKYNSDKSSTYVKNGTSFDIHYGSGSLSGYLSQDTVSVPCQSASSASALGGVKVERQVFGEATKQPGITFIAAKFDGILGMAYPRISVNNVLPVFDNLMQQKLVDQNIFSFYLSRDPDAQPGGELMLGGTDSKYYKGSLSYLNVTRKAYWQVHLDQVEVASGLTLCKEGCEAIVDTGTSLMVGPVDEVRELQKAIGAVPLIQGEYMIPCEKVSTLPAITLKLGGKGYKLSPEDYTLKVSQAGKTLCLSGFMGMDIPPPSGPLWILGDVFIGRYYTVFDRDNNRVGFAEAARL
Put plainly: Cathepsin D inhibition assay, hydrolysis of chromogenic substrate. It is filed as biochemical. Here is the method:
as §1

Test [2] has as its system chloroquine-sensitive Plasmodium falciparum (NF54). As to the kind of experiment: malaria-infected human red blood cell assay, [3H]hypoxanthine incorporation. It is filed as cell-based. The settings on record: P. falciparum NF54, 48 h + 20 h incubation; read-out: IC50, killing of malaria parasite in infected red blood cell assay. The procedure:
The ability of some KNI compounds to kill the malaria parasite was evaluated by measuring the IC50 in a malaria-infected human red blood cell assay. Activity was determined by measuring the incorporation of [^3H]hypoxanthine. Briefly, chloroquine-sensitive Plasmodium falciparum (NF54) were maintained in a 2.4% suspension of type O^+ human erythrocytes in RPMI 1640, supplemented with 25 mM HEPES, 27 mM NaHCO3, and 10% heat-inactivated human type O^+ serum, under 3% O2, 4% CO2, and 93% N2. 20 mM stock solutions of KNI-764 and KNI-727 and KNI-840 were prepared in DMSODMSO solutions were diluted 500 fold in medium, serially diluted in 0.2% DMSO in medium, then 100 μl aliquots were pipetted into microtiter plate wells. Provisional EC50 values were obtained in a survey of ten 5-fold dilutions yielding final concentrations (in quadruplicate) of 0.00001-20 μM. Plates included 8 wells of no drug controls (4 with and 4 without DMSO) and 4 wells in uninfected erythrocytes. […] The filters were washed four times with 3 ml water per sample spot, dried under a heat lamp, and counted in scintillation cocktail. Decays per minute values were downloaded and analyzed in order to yield the mean and standard deviation at each drug concentration. […]

Setting [3] is: 25° C., 10 mM sodium formate, 2% DMSO, pH 4.0, fit to competitive inhibition, read-out: Ki Plm II.
[4] abbreviates: Table 2, read-out: Ki Plasmepsin II.
Setting [5] is: 25° C., 10 mM sodium formate, 2% DMSO, pH 4.0, fit to competitive inhibition, read-out: Ki CatD.
Setting [6] is: Table 2, read-out: Ki Cathepsin D.

T1 sequence (P46925 125-453): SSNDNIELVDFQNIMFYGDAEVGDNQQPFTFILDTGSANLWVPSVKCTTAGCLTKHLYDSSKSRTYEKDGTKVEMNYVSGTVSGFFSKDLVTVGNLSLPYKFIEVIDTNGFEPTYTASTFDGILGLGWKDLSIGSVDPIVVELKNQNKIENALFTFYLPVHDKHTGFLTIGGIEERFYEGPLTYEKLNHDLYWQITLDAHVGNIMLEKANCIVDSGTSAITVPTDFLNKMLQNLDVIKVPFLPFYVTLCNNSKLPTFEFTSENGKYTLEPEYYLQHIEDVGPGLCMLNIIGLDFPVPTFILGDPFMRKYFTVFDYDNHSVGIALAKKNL

`Cc1ccccc1CNC(=O)[C@H]1N(C(=O)[C@@H](O)[C@H](Cc2ccccc2)NC(=O)c2cccc(O)c2C)CSC1(C)C` [KNI-764]: in test [1], the “inhibition constants against Plasmepsin II, in words” value (“inhibition constants” for short) is “nanomolar and subnanomolar range”. For the same molecule, the Ki in test [1] (setting [3]) turned out to be 30 ± 9 nM; in test [1] (setting [4]) it was 30 nM; at human Cathepsin D (setting [5]), 201 ± 20 nM; at human Cathepsin D (setting [6]), 201 nM. In test [1], the “Discrimination Factor: Fold Selectivity for Plasmepsin II over Cathepsin D” value (“Discrimination Factor: Fold Selectivity” below) is on record as around 7. For the same molecule, the IC50 in test [2] is 10000 nM.

Take `Cc1ccccc1CNC(=O)[C@H]1N(C(=O)[C@@H](O)[C@H](Cc2ccccc2)NC(=O)COc2c(C)cccc2C)CSC1(C)C` [KNI-840]: in test [1], the “inhibition constants” value was “nanomolar and subnanomolar range”. Moreover, the Ki in test [1] (setting [3]) is 20 ± 10 nM; in test [1] (setting [4]) it was 20 nM; in test [1] (read-out: Ki (Plasmepsin II), unit inferred) it was around 20 nM; at human Cathepsin D (setting [5]) it was 80 ± 90 nM; at human Cathepsin D (setting [6]), 80 nM. Further, the “discrimination factor / Cathepsin D selectivity” value in test [1] (Plasmepsin II versus Cathepsin D, fold) was determined as 4. Also, the “Discrimination Factor: Fold Selectivity” value in test [1] was found to be 4. For the same molecule, the IC50 in test [2] was determined as 10000 nM.

With `Cc1cccc(C)c1OCC(=O)N[C@@H](Cc1ccccc1)[C@H](O)C(=O)N1CSC(C)(C)[C@H]1C(=O)N[C@H](CO)c1ccccc1` [KNI-10043], in test [1], the “inhibition constants” value was “nanomolar and subnanomolar range”. In addition, the Ki in test [1] (setting [3]) came out at 22 ± 5 nM; in test [1] (setting [4]), 22 nM; on human Cathepsin D (setting [5]) it was 53 ± 8 nM; on human Cathepsin D (setting [6]), 53 nM. The “Discrimination Factor: Fold Selectivity” value in test [1] is listed as 2.4.

In the case of `Cc1cccc(C)c1OCC(=O)NC(Cc1ccccc1)C(O)C(=O)N1CSC(C)(C)C1C(=O)NC(CO)c1ccccc1` (stereo not shown) [KNI-10044], the results for the Ki (in test [1] (setting [3]); on human Cathepsin D (setting [5])) were 532 ± 70 nM and 1040 ± 178 nM, respectively.

With `CC(C)(C)NC(=O)[C@H]1N(C(=O)[C@@H](O)[C@H](Cc2ccccc2)NC(=O)COc2cccc(Cl)c2)CSC1(C)C` [KNI-10045], the figures for the Ki (in test [1] (setting [3]); at human Cathepsin D (setting [5])) were 1080 ± 165 nM and 6160 ± 671 nM, respectively.

`Cc1cccc(C)c1OCC(=O)N[C@@H](Cc1ccccc1)[C@H](O)C(=O)N1CSC(C)(C)[C@H]1C(=O)NCc1ccccc1` [KNI-10046]: the figures for the Ki (in test [1] (setting [3]); at human Cathepsin D (setting [5])) were 96 ± 20 nM and 260 ± 23 nM, respectively.

On to `Cc1cccc(C)c1OCC(=O)N[C@@H](Cc1ccccc1)[C@H](O)C(=O)N1CSC(C)(C)[C@H]1C(=O)NCc1ccccc1O` [KNI-10047], for which the Ki was found to be 55 ± 7 nM in test [1] (setting [3]) and 252 ± 53 nM at human Cathepsin D (setting [5]).

On to `Cc1cccc(C)c1OCC(=O)N[C@@H](Cc1ccccc1)[C@H](O)C(=O)N1CSC(C)(C)[C@H]1C(=O)NCc1cccc(O)c1` [KNI-10048], for which the inhibition constant Ki in test [1] (setting [3]) worked out at 99 ± 14 nM; at human Cathepsin D (setting [5]), 771 ± 97 nM.

For `CC(C)C(NC(=O)OCc1ccccc1)C(=O)NC(Cc1ccccc1)C(O)C(=O)N1CSC(C)(C)C1C(=O)NC(C)(C)C` (stereo not shown) [KNI-10049], the Ki in test [1] (setting [3]) amounted to 1510 ± 125 nM; at human Cathepsin D (setting [5]), 2580 ± 682 nM.

Consider `CC(C)(C)NC(=O)[C@H]1N(C(=O)[C@@H](O)[C@H](Cc2ccccc2)NC(=O)[C@H](Cc2ccccc2)NC(=O)COc2cccc3cnccc23)CSC1(C)C` [KNI-10051], for which the Ki in test [1] (setting [3]) was determined as 186 ± 14 nM; on human Cathepsin D (setting [5]), 6510 ± 1220 nM.

Take `Cc1ccc(CNC(=O)[C@H]2N(C(=O)[C@@H](O)[C@H](Cc3ccccc3)NC(=O)COc3c(C)cccc3C)CSC2(C)C)cc1` [KNI-10052]: the results for the inhibition constant (Ki) (in test [1] (setting [3]); at human Cathepsin D (setting [5])) were 572 ± 54 nM and 1320 ± 152 nM, respectively.

For `Cc1cccc(CNC(=O)[C@H]2N(C(=O)[C@@H](O)[C@H](Cc3ccccc3)NC(=O)COc3c(C)cccc3C)CSC2(C)C)c1` [KNI-10053], in test [1], the “inhibition constants” value was “nanomolar and subnanomolar range”. Also, the Ki in test [1] (setting [3]) is 41 ± 7 nM; in test [1] (setting [4]) it was 41 nM; on human Cathepsin D (setting [5]), 360 ± 54 nM; at human Cathepsin D (setting [6]), 360 nM. For the same molecule, in test [1], the “Discrimination Factor: Fold Selectivity” value was around 9.

On to `Cc1cccc(C)c1OCC(=O)NC(Cc1ccccc1)C(O)C(=O)N1CSC(C)(C)C1C(=O)NCc1ccc(O)cc1` (stereo not shown) [KNI-10054], for which the Ki came out at 273 ± 41 nM in test [1] (setting [3]) and 1640 ± 146 nM at human Cathepsin D (setting [5]).

As to `CC(C)(C)NC(=O)C1N(C(=O)C(O)C(Cc2ccccc2)NC(=O)C(CCC(N)=O)NC(=O)COc2cccc3cnccc23)CSC1(C)C` (stereo not shown) [KNI-10055], the values for the Ki (in test [1] (setting [3]); on human Cathepsin D (setting [5])) were 1170 ± 71 nM and 6280 ± 981 nM, respectively.

Turning to `CC(C)C(NC(=O)COc1ccccc1)C(=O)NC(Cc1ccccc1)C(O)C(=O)N1CSC(C)(C)C1C(=O)NC(C)(C)C` (stereo not shown) [KNI-10056], the Ki is 1770 ± 154 nM in test [1] (setting [3]) and 1280 ± 161 nM on human Cathepsin D (setting [5]).

For `CCSC[C@H](NC(=O)COc1cccc2cnccc12)C(=O)N[C@@H](Cc1ccccc1)[C@H](O)C(=O)N1CSC(C)(C)[C@H]1C(=O)NC(C)(C)C` [KNI-10057], the results for the Ki (in test [1] (setting [3]); at human Cathepsin D (setting [5])) were 428 ± 21 nM and 5300 ± 633 nM, respectively.
